Results as given in ChEMBL document CHEMBL4261555, “Identification of a potent kinase inhibitor targeting EML4-ALK fusion protein in non-small cell lung cancer” (Medchemcomm, 2017).
Calls of active or inactive are those of the source. The calls are words filed in the database; no cut-off is given here.

Columns and labels:
[1] = target: T1, ALK tyrosine kinase receptor (Homo sapiens, UniProt Q9UM73); assay: Inhibition of EML4-fused ALK in human NCI-H2228 cells assessed as suppression of STAT3 phosphorylation after 48 hrs by Western blot method; type: cell-based
Target sequence in this assay (Q9UM73 19-1620 limits assumed): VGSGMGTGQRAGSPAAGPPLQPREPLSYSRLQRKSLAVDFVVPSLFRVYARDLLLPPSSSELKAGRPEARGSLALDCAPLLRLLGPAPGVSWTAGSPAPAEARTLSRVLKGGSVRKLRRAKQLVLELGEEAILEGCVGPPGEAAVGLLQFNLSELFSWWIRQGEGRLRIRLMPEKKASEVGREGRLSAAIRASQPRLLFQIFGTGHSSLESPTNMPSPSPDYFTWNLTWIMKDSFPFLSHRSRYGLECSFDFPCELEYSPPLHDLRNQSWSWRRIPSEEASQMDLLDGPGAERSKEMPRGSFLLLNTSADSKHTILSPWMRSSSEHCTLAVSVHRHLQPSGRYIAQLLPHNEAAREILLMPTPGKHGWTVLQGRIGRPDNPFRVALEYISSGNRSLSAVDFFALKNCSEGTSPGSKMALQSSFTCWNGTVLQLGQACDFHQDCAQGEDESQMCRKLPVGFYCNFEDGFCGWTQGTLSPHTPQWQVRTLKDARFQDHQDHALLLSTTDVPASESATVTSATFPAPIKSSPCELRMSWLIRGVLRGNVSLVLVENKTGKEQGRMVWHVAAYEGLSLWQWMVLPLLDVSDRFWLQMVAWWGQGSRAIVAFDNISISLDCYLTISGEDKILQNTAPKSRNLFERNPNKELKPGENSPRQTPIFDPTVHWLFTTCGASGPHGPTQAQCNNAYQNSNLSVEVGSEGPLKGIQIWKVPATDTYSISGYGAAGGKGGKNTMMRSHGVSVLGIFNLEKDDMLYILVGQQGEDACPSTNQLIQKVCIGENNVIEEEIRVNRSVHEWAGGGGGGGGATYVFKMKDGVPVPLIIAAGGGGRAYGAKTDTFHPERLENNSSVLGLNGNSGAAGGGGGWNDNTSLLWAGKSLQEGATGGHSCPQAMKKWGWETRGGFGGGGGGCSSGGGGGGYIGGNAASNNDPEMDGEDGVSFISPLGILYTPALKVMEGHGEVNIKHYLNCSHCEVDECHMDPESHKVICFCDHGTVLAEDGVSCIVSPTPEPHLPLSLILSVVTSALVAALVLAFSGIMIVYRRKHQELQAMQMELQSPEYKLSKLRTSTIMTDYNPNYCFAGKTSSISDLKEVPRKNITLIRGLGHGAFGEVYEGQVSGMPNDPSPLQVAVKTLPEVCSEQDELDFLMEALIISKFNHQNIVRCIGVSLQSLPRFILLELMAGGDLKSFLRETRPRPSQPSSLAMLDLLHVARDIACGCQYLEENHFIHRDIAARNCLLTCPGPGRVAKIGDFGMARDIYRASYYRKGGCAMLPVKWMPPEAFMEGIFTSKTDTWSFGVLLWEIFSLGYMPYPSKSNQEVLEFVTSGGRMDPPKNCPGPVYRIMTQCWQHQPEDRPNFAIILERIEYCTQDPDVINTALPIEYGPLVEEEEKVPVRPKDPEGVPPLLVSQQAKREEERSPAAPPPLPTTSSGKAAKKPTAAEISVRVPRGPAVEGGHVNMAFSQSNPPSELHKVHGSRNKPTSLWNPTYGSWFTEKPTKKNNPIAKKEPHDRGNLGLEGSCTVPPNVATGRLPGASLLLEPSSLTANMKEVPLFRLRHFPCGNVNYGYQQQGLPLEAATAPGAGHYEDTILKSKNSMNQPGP

NCI-H2228 [2] = assay: Induction of apoptosis in human NCI-H2228 cells at 10 uM after 48 hrs by annexin V-FITC/propidium iodide staining-based flow cytometric method (reference value: 4.5%); type: functional
[3] = target: T1, ALK tyrosine kinase receptor
Target sequence in this assay (Q9UM73 whole entry, the tested form may be a part): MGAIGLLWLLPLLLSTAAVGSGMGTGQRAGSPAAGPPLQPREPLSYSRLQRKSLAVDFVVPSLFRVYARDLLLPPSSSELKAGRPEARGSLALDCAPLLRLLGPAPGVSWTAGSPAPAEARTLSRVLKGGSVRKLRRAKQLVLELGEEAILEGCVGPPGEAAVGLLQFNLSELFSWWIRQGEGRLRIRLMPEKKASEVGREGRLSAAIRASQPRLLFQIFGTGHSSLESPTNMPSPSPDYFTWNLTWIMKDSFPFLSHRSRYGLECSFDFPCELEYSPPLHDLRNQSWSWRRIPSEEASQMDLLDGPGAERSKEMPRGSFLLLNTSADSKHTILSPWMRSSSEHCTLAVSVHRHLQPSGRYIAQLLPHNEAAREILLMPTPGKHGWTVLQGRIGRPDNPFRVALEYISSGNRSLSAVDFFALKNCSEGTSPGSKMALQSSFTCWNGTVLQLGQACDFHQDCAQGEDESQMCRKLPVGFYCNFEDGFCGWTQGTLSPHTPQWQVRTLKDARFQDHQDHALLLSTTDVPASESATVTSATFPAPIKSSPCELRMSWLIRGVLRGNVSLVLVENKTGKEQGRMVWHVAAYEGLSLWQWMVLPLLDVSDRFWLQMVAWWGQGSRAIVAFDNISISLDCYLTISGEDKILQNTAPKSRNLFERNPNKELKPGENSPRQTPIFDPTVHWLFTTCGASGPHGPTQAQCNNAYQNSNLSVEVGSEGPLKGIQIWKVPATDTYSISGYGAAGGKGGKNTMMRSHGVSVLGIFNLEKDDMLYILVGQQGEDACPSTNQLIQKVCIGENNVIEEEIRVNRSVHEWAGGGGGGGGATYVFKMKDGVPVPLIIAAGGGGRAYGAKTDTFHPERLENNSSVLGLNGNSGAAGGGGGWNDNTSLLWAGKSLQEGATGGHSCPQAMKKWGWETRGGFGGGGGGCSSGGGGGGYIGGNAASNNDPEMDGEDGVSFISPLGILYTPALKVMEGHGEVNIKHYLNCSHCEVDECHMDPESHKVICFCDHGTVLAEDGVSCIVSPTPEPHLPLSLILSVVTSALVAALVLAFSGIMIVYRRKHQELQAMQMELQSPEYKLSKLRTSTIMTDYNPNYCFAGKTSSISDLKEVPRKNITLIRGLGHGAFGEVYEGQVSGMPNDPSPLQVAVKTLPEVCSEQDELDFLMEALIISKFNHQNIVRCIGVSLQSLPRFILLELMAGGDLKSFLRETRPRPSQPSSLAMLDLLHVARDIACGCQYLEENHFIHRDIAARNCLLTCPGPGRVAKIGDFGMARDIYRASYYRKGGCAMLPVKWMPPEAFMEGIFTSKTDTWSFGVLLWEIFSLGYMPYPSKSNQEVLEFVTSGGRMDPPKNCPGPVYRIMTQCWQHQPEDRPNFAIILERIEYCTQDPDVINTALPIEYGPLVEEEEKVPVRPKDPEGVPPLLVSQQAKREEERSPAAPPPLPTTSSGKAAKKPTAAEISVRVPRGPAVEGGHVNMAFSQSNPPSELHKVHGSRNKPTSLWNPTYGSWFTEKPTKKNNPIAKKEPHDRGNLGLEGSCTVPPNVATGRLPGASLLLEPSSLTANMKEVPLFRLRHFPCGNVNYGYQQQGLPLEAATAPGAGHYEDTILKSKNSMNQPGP
Description: Inhibition of recombinant ALK (unknown origin) after 1 hr by fluorescence assay

NCI-H2228 [4] = assay: Induction of apoptosis in human NCI-H2228 cells at 5 uM after 48 hrs by annexin V-FITC/propidium iodide staining-based flow cytometric method (reference value: 4.5%); type: functional
NCI-H2228 [5] = assay: Induction of apoptosis in human NCI-H2228 cells after 48 hrs by annexin V-FITC/propidium iodide staining-based flow cytometric method; type: functional, cell-based
NCI-H2228 [6] = assay: cells; conditions: Homo sapiens, NCI-H2228, 72 h
Description: (§1) Cytotoxicity against human NCI-H2228 cells harboring EML4-ALK fusion protein assessed as decrease in cell viability after 72 hrs by MTT assay

NCI-H2228 [7] = conditions: Homo sapiens
Description: as §1

NCI-H2228 [8] = assay: Anticlonogenic activity against human NCI-H2228 cells treated every 3 days for 10 days by crystal violet staining based assay; type: functional, cell-based
[9] = target: T1, ALK tyrosine kinase receptor; assay: Inhibition of EML4-fused ALK in human NCI-H2228 cells assessed as suppression of ERK1/2 phosphorylation after 48 hrs by Western blot method; type: cell-based
Target sequence in this assay (Q9UM73 19-1620 limits assumed): as the sequence (Q9UM73 19-1620 limits assumed) above

[10] = target: T1, ALK tyrosine kinase receptor; assay: Inhibition of EML4-fused ALK in human NCI-H2228 cells assessed as suppression of AKT phosphorylation after 48 hrs by Western blot method; type: cell-based
Target sequence in this assay (Q9UM73 19-1620 limits assumed): as above

[11] = target: T1, ALK tyrosine kinase receptor; assay: Inhibition of EML4-fused ALK autophosphorylation at Tyr1282/1283 in human NCI-H2228 cells at 2.5 to 10 uM after 48 hrs by Western blot method; type: cell-based
Target sequence in this assay (Q9UM73 19-1620 limits assumed): as above

- inhibition [1]: Dose-dependent effect
- EC50 [3]: 19.6 µM
- IC50 (NCI-H2228 [6]): 4.11 µM
- inhibition [9]: Dose-dependent effect
- inhibition [10]: Dose-dependent effect
- inhibition [11]: Active
Compound: CC1=C(C)C2C(=O)N3N=C(NCCCN(C)C)c4ccccc4C3=NC2S1 (stereo unspecified)
- Activity (NCI-H2228 [2]): 37.5%
- Activity (NCI-H2228 [4]): 23.5%
- Activity (NCI-H2228 [5]): Dose-dependent effect
- Activity (NCI-H2228 [7]): Dose-dependent effect
- Activity (NCI-H2228 [8]): Active
